Tests used:
C1r = tested on: C1r; parameters: method as in PMID 10206542; details: cited from earlier work
alternative pathway = experiment: Alternative pathway-specific ELISA (LPS, 20% serum, C3b detection); assay type: biochemical, human; details: single dose 500 µM, triplicate
Protocol: Figure 5 Selectivity and mechanistic analysis of CMP-1611 and CMP-1696. (A) Chemical structure of CMP-1611. (B) Chemical structure of CMP-1696. (C) Dose-dependent inhibition by CMP-1611 and CMP-1696 in a classical pathway-specific ELISA. Data were fit with GraphPad Prism using non-linear regression with a log(inhibitor) vs. response model. […] (D) Complement pathway selectivity of CMP-1611 and CMP-1696. Compounds were assessed for their ability to inhibit activation of complement via the lectin and alternative pathways using single doses of 500 µM compound in triplicate. To ensure only lectin pathway activation, 2% (v/v) C1q-depleted serum (CompTech) was used and mannan was used as the activator. To match serum sources and amounts for this assay, the classical pathway assays were repeated here using serum from CompTech at 2% (v/v) final concentration. Alternative pathway activation assays were performed using 20% (v/v) serum (CompTech), alternative pathway buffers, and C3b detection (see Methods and Materials for details). […]
To carry out classical pathway ELISA-based inhibition assays, IgM was dissolved in coating buffer (100 mM Na2CO3/NaHCO3, pH 9.6) to a final concentration of 3 µg/mL and was dispensed into 96-well plates at 100 µL per well. […] The reaction was stopped with 50 µL of 0.16 M sulfuric acid, and the plate was read at 450 nm using an EnSight multimode plate reader (Perkin-Elmer). […]

| Structure (SMILES) | inhibition of C1r (C1r) | inhibition of alternative pathway activation (alternative pathway) |
| --- | --- | --- |
| N=C(N)c1ccc2cc(OC(=O)c3ccc(N=C(N)N)cc3)ccc2c1 [Futhan, reference compound] | previously reported to inhibit C1r | – |
| CN(C)c1cc(N2CCCC(N)C2)ncn1 (centres unmarked) [CMP-1611] | – | no effect |

Source: PMC7504721, “Targeting the Initiator Protease of the Classical Pathway of Complement Using Fragment-Based Drug Discovery” (Molecules, 2020)
